A short description of data set [1]: Hydrolytic decomposition in PBS by HPLC. It counts as physicochemical. Particulars: PBS with 5% DMSO, 25° C., read-out: t1/2 for hydrolysis (converted). The text has this: In certain in vivo environments (especially at high or low pH or in the presence of esterases), ANCA-11 is expected to decompose very rapidly due to the poor stability of its ester functionality. The amide functionality in Compound 1 alleviates the problem of hydrolytic instability inherent to ANCA-11.

In data set [2] the test system is amyloid deposits in murine AD neuronal tissue. Kind of data set: Tissue staining of amyloid deposits in AD mouse brain sections. Particulars: for staining of amyloid deposits in murine AD neuronal tissue: figure legends; for fluorescence labeling of amyloid deposits in hippocampal brain sections: mouse model for Alzheimer's disease, FIG. 13.
Data set [3] deals with aggregated Aβ(1-42) peptide (Homo sapiens, UniProt P05067). Particulars: in vitro; characteristic fluorescence upon binding to Alzheimer's related amyloids.
Data set [4] has as its target amyloid deposits in the retina (Homo sapiens, UniProt P05067). The data set is described as follows: Ex vivo retina analysis of J20 mice after systemic (tail vein) dosing. To be noted: J20 mouse, 30 minutes prior to sacrifice, co-localizes with anti-Aβ antibody.
Data set [5] relates to prion amyloid deposits in the retina.
A further data set can be described thus: Solubility studies. Particulars: lower pH and higher buffer concentration.
For data set [6], the system named is amyloids derived from amyloid-β, PrP, and α-synuclein. It counts as binding.

In brackets after ≈: the same amount, converted by molar mass. A value given as a limit tells only on which side of the number the result lay.

amyloid deposits in the retina, sequence (P05067 672-713 limits assumed): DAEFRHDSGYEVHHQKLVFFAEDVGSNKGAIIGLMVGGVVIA
aggregated Aβ(1-42) peptide, sequence (P05067 672-713): as the sequence (P05067 672-713 limits assumed) above

As to `COCCOCCOCCOC(=O)/C(C#N)=C/c1ccc2cc(N3CCCCC3)ccc2c1` [ANCA-11, (E)-2-(2-(2-methoxyethoxy)ethoxy)ethyl 2-cyano-3-(6-(piperidin-1-yl)naphthalen-2-yl)acrylate, reference compound], the half-life in data set [1] is about 11 h.

Consider `COCCOCCOCCOCCOCCOCCNC(=O)/C(C#N)=C/c1ccc2cc(N3CCCCC3)ccc2c1` [Compound 3, (E)-2-cyano-N-(2,5,8,11,14,17-hexaoxanonadecan-19-yl)-3-(6-(piperidin-1-yl)naphthalen-2-yl)acrylamide], for which the “staining of amyloid deposits in murine AD neuronal tissue” value (“staining” for short) in data set [2] is recorded as “staining of amyloid deposits”.

`N#C/C(=C\c1ccc2cc(N3CCCCC3)ccc2c1)C(=O)NCC(O)CO` (stereo not shown) [Compound 5, (E)-2-cyano-N-(2,3-dihydroxypropyl)-3-(6-(piperidin-1-yl)naphthalen-2-yl)acrylamide]: in data set [2], the “staining” value is “staining of amyloid deposits”.

Consider `COCCOCCOCCNC(=O)/C(C#N)=C/c1ccc2cc(N3CCCCC3)ccc2c1` [Compound 1, (E)-2-Cyano-N-(2-(2-(2-methoxyethoxy)ethoxy)ethyl)-3-(6-(piperidin-1-yl)naphthalen-2-yl)acrylamide], for which the “ability to bind selectively to amyloids” value in data set [3] is “bind selectively to amyloids”. For the same molecule, the “crossing of the blood-retina barrier” value in data set [4] is “can cross the blood-retina barrier”. The “visualization of amyloid deposits in the retina of live mice” value in data set [5] (mice inoculated with GPI-anchorless PrP, intraperitoneal injection) was “allowed for the visualization of amyloid deposits in the retina”. In data set [5] (wt mouse, fluorescence image immediately after IP injection), the “accumulation in blood and retinal tissue after IP injection” value is “immediately accumulates in the blood and in the retinal tissue”. In addition, the “fluorescence labeling of amyloid deposits in hippocampal brain sections” value in data set [2] is given as “fluorescence labeling of amyloid deposits”. In the data set “Solubility studies”, the “fold increase of solubility in acid buffer vs water” value is reported as 100 fold. In data set [1], the half-life was about 150 h. In addition, the “discrimination of amyloids of different disease origin based on color of emission” value in data set [6] is “can distinguish between amyloids of different disease origin based on color of emission”. Besides, the solubility (as a rule, the dissolved amount per volume that the medium holds) in “physchem” (aqueous buffer, solubility at lower pH and higher acidic buffer strength) was over 6000 µg/mL; in “physchem” (aqueous with cosolvent or surfactant or cyclodextrin, solubility in surfactants) it was over 5000 µg/mL; in the data set “physchem” (aqueous with cosolvent or surfactant or cyclodextrin, solubility in the other water miscible solvents listed) it was 2000 to 3000 µg/mL (≈ 4.43 to 6.64 mM); in “physchem” (oil or lipid, solubility in all oils tested), over 5000 µg/mL; in the data set “physchem” (organic solvent or mixture, Solubility (mg/mL)), 20000 µg/mL (≈ 44.3 mM); in “physchem” (organic solvent or mixture, solubility in water miscible solvents: alcohols), over 5000 µg/mL. In addition, the solubility in the data set “physchem” (pH 2, aqueous buffer, solubility in acid buffers) is at most 350 µg/mL; in the data set “physchem” (pH 2.5, aqueous buffer, Conc (mg/mL)) it was 1630 µg/mL (≈ 3.61 mM); in “physchem” (pH 7.4, aqueous buffer, Conc (mg/mL)), 7.4 µg/mL (≈ 0.0164 mM); in the data set “physchem” (water, Conc (mg/mL)), 3.1 µg/mL (≈ 0.00686 mM); in “physchem” (water, solubility in water), 3 µg/mL (≈ 0.00664 mM).

Consider `COCCOCCOCCNS(=O)(=O)/C(C#N)=C/c1ccc2cc(N3CCCCC3)ccc2c1` [Compound 2, (E)-1-cyano-N-(2-(2-(2-methoxyethoxy)ethoxy)ethyl)-2-(6-(piperidin-1-yl)naphthalen-2-yl)ethenesulfonamide], for which the “fluorescence labeling of amyloid deposits in hippocampal brain sections” value in data set [2] is recorded as “fluorescence labeling of amyloid deposits”.

With `COC1OC(Cn2cc(COCCOCCOCCNC(=O)/C(C#N)=C/c3ccc4cc(N5CCCCC5)ccc4c3)nn2)C(O)C(O)C1O` (stereo not shown) [Compound 19, (E)-2-cyano-3-(6-(piperidin-1-yl)naphthalen-2-yl)-N-(2-(2-(2-((1-((3,4,5-trihydroxy-6-methoxytetrahydro-2H-pyran-2-yl)methyl)-1H-1,2,3-triazol-4-yl)methoxy)ethoxy)ethoxy)ethyl)acrylamide], the “staining” value in data set [2] is “staining of amyloid deposits”.

Take `COC1OC(Cn2cc(CNC(=O)/C(C#N)=C/c3ccc4cc(N5CCCCC5)ccc4c3)nn2)C(O)C(O)C1O` (stereo not shown) [Compound 20, (E)-2-cyano-3-(6-(piperidin-1-yl)naphthalen-2-yl)-N-((1-((3,4,5-trihydroxy-6-methoxytetrahydro-2H-pyran-2-yl)methyl)-1H-1,2,3-triazol-4-yl)methyl)acrylamide]: in data set [2], the “staining” value is given as “staining of amyloid deposits”.
